For series [1], the system named is MCF-7 breast adenocarcinoma cells. The experiment in a line: MCF-7 Proliferation Assay (tritiated thymidine). Type of series: cell-based. The following applies: Homo sapiens, MCF7; MCF-7 cells, 48 hours with drug, tritiated thymidine pulse 4 hours; read-out: IC50. The procedure:
MCF-7 breast adenocarcinoma cells (ATCC HTB 22) were maintained in MEM (minimal essential medium, phenol red-free, Sigma, St. Louis, Mo.) supplimented with 10% fetal bovine serum (FBS) (V/V), L-glutamine ([…]), sodium pyruvate (1 mM), HEPES {(N-[2-hydroxyethyl]piperazine-N′-[2-ethanesulfonic acid]10 mM}, non-essential amino acids and bovine insulin (1 ug/mL) (maintenance medium). Ten days prior to assay, MCF-7 cells were switched to maintenance medium supplemented with 10% dextran coated charcoal stripped fetal bovine serum (DCC-FBS) assay medium) in place of 10% FBS to deplete internal stores of steroids. MCF-7 cells were removed from maintenance flasks using cell dissociation medium (Ca++/Mg++ free HBSS (phenol red-free) supplemented with 10 mM HEPES and 2 mM EDTA). Cells were washed twice with assay medium and adjusted to 80,000 cells/mL. Approximately 100 μL (8,000 cells) were added to flat-bottom microculture wells (Costar 3596) and incubated at 37° C. in a 5% CO2 humidified incubator for 48 hours to allow for cell adherence and equilibration after transfer. Serial dilutions of drugs or DMSO as a diluent control were prepared in assay medium and 50 μL transferred to triplicate microcultures followed by 50 μL assay medium for a final volume of 200 μL. After an additional 48 hours at 37° C. in a 5% CO2 humidified incubator, microcultures were pulsed with tritiated thymidine (1 uCi/well) for 4 hours. Cultures were terminated by freezing at −70° C. for 24 hours followed by thawing and harvesting of microcultures using a Skatron Semiautomatic Cell Harvester. Samples were counted by liquid scintillation using a Wallac BetaPlace β counter. Results in Table 4 below show the IC50 for certain compounds of the present invention.

For series [2], the system named is ovariectomized (OVX) female Sprague Dawley rats. The series is described as follows: Serum cholesterol in OVX rats, 4-day dosing. Type of series: in vivo, rat. Conditions: Rattus norvegicus, po, 96 h, oral daily for 4 days, read-out: Serum Cholesterol (% decrease vs. OVX). An excerpt:
(§1) Seventy-five day old female Sprague Dawley rats (weight range of 200 to 225 g) were obtained from Charles River Laboratories (Portage, Mich.). The animals were either bilaterally ovariectomized (OVX) or exposed to a Sham surgical procedure at Charles River Laboratories, and then shipped after one week. Upon arrival, they were housed in metal hanging cages in groups of 3 or 4 per cage and had ad libitum access to food (calcium content approximately 0.5%) and water for one week. Room temperature was maintained at 22.2°±1.7° C. with a minimum relative humidity of 40%. The photoperiod in the room was 12 hours light and 12 hours dark.
(§2) Dosing Regimen Tissue Collection. After a one week acclimation period (therefore, two weeks post-OVX) daily dosing with test compound was initiated. 17α-ethynyl estradiol or the test compound were given orally, unless otherwise stated, as a suspension in 1% carboxymethylcellulose or dissolved in 20% cyclodextrin. Animals were dosed daily for 4 days. Following the dosing regimen, animals were weighed and anesthetized with a ketamine: Xylazie (2:1, V:V) mixture and a blood sample was collected by cardiac puncture. The animals were then sacrificed by asphyxiation with CO2, the uterus was removed through a midline incision, and a wet uterine weight was determined.
Cholesterol Analysis. Blood samples were allowed to clot at room temperature for 2 hours, and serum was obtained following centrifugation for 10 minutes at 3000 rpm. Serum cholesterol was determined using a Boehringer Mannheim Diagnostics high performance cholesterol assay. Briefly the cholesterol was oxidized to cholest-4-en-3-one and hydrogen peroxide. The hydrogen peroxide was then reacted with phenol and 4-aminophenazone in the pressure of peroxidase to produce a p-quinone imine dye, which was read spectrophotemetrically at 500 nm. Cholesterol concentration was then calculated against a standard curve. The entire assay was automated using a Biomek Automated Workstation.
(§3) Data presented in Table 1 below show comparative results among ovariectomized rats, rats treated with 17α-ethynyl estradiol (EE2; an orally available form of estrogen), and rats treated with certain compounds of the present invention. […] This uterine response to estrogen is well recognized in the art.
(§4) The data presented in the Tables 1 below reflects the response of 5 to 6 rats per treatment.

Series [3] shares this test system. The experiment in a line: Osteoporosis Test Procedure: distal femur metaphysis X-ray image analysis, OVX rats, 35 days. Conditions: mean ± SEM. Type of series: in vivo, rat.
Excerpt: as §1
Following the General Preparation Procedure, infra, the rats were treated daily for 35 days (6 rats per treatment group) and sacrificed by carbon dioxide asphyxiation on the 36th day. The 35 day time period was sufficient to allow maximal reduction in bone density, measured as described herein. At the time of sacrifice, the uteri were removed, dissected free of extraneous tissue, and the fluid contents were expelled before determination of wet weight in order to confirm estrogen deficiency associated with complete ovariectomy. […] The uteri were then placed in 10% neutral buffered formalin to allow for subsequent histological analysis.
The right femurs were excised and digitilized x-rays generated and analyzed by an image analysis program (NIH image) at the distal metaphysis. The proximal aspect of the tibiae from these animals were also scanned by quantitative computed tomography.
In accordance with the above procedures, compounds of the present invention and ethynyl estradiol (EE2) in 20% hydroxypropyl β-cyclodextrin were orally administered to test animals. Distal femur metaphysis data presented in Tables 2 and 3 below are the results of formula I compound treatments compared to intact and ovariectomized test animals. Results are reported as the mean ± the standard error of the mean.

The test system is the same in series [4]. The following applies: rat, in vivo, po, 4 days. The protocol:
In the examples illustrating the methods, a post-menopausal model was used in which effects of different treatments upon circulating lipids were determined.
as §1, §2, §3, §4

Series [5] concerns Uterine Eosinophil Peroxidase (EPO). The following applies: female, Sprague Dawley, rat, in vivo, po, 4 days.
Excerpt: as §1, §2
Uterine Eosinophil Peroxidase (EPO) Assay. Uteri were kept at 4° C. until time of enzymatic analysis. The uteri were then homogenized in 50 volumes of 50 mM Tris Buffer (pH −8.0) containing 0.005% Triton X-100. Upon addition of 0.01% hydrogen peroxide and 10 mM O-phenylenediamine (final concentrations) in Tris buffer, increase in absorbance was monitored for one minute at 450 nm. The presence of eosonophils in the uterus is an indication of estrogenic activity of a compound. The maximal velocity of a 15 second interval was determined over the initial, linear portion of the reaction curve.
As is expressed in the below data, estrogenicity also was assessed by evaluating the adverse response to eosinophil infiltration into the uterus.
as §4

Read-outs that look alike come from different tables or passages of the source.

By IC50 is commonly meant the concentration at which inhibition is half-maximal. As for `Cl.Oc1ccc(-c2ccc3cc(O)ccc3c2Cc2ccc(OCCN3CCCCC3)cc2)cc1` [Example 2, [2-(4-Hydroxyphenyl)-6-hydroxynaphthalen-1-yl][4-[2-(1-piperidinyl)ethoxy]phenyl]methane hydrochloride], the IC50 in series [1] came to 0.1 nM. Further, the inhibition in vivo at 0.01 mg/kg in series [2] stood at 34.2%. The inhibition in vivo at 0.1 mg/kg in series [2] worked out at 63%. In addition, in series [2], the inhibition in vivo at 1 mg/kg is 78.1%. For the same molecule, the inhibition in vivo at 10 mg/kg in series [2] was determined as 58.8%. For the same molecule, the “Distal Femur Metaphysis (X-ray Image Analysis-Gray Score)” value in series [3] (Table 3, oral daily 35 days in 20% cyclodextrin, 0.01 mg/kg, OVX control 7.2 ± 2.2, Sham 44.7 ± 6.4) was determined as 19.6 ± 3.3; in series [3] (Table 3, oral daily 35 days in 20% cyclodextrin, 0.1 mg/kg, OVX control 7.2 ± 2.2, Sham 44.7 ± 6.4) it was 25.7 ± 5.9; in series [3] (Table 3, oral daily 35 days in 20% cyclodextrin, 1.0 mg/kg, OVX control 7.2 ± 2.2, Sham 44.7 ± 6.4), 21.5 ± 3.2; in series [3] (Table 3, oral daily 35 days in 20% cyclodextrin, 10.0 mg/kg, OVX control 7.2 ± 2.2, Sham 44.7 ± 6.4), 30.0 ± 4.5. Moreover, the “Uterine Weight (% increase vs. OVX)” value turned out to be 2.4% in series [4] (0.01 mg/kg), 24.6% in series [4] (0.1 mg/kg), 4.1% in series [4] (1 mg/kg) and 2.6% in series [4] (10 mg/kg). Moreover, the “Uterine EPO (V. max)” value in series [5] (0.01 mg/kg) is 4.5; in series [5] (0.1 mg/kg), 4.5; in series [5] (1 mg/kg), 4.8; in series [5] (10 mg/kg) it was 4.2.
`O=C(Oc1ccc(-c2ccc3cc(OC(=O)c4ccccc4)ccc3c2Cc2ccc(OCCN3CCCCC3)cc2)cc1)c1ccccc1` [Example 3, [2-(4-Benzoyloxyphenyl)-6-benzoyloxynaphthalen-1-yl][4-[2-(1-piperidinyl)ethoxy]phenyl]methane]: the IC50 in series [1] worked out at 0.7 nM. Besides, the inhibition in vivo at 0.01 mg/kg in series [2] was found to be 33.3%. The inhibition in vivo at 0.1 mg/kg in series [2] is 56.7%. The inhibition in vivo at 1 mg/kg in series [2] turned out to be 63.6%. In series [2], the inhibition in vivo at 10 mg/kg was found to be 74.7%. Also, the “Distal Femur Metaphysis (X-ray Image Analysis-Gray Score)” value in series [3] (Table 2, oral daily 35 days in 20% cyclodextrin, 0.1 mg/kg, OVX control 5.5 ± 0.6, Sham 30.5 ± 4.3) turned out to be 14.5 ± 3.6; in series [3] (Table 2, oral daily 35 days in 20% cyclodextrin, 1.0 mg/kg, OVX control 5.5 ± 0.6, Sham 30.5 ± 4.3), 31.4 ± 5.8; in series [3] (Table 2, oral daily 35 days in 20% cyclodextrin, 10.0 mg/kg, OVX control 5.5 ± 0.6, Sham 30.5 ± 4.3), 26.6 ± 6.3. For the same molecule, the “Uterine Weight (% increase vs. OVX)” value in series [4] (0.01 mg/kg) turned out to be 2.0%; in series [4] (0.1 mg/kg) it was 7.1%; in series [4] (1 mg/kg) it was 0.0%; in series [4] (10 mg/kg) it was 4.5%. Besides, the “Uterine EPO (V. max)” value in series [5] (0.01 mg/kg) amounted to 5.4; in series [5] (0.1 mg/kg) it was 4.2; in series [5] (1 mg/kg) it was 4.2; in series [5] (10 mg/kg), 4.8.

For the origin of these results see US6410564B1, “Naphthyl compounds, intermediates, processes, compositions, and methods” (Eli Lilly and Company, priority 1994, dated 2002).
